Test results: patent US20080269298A1, “Benzimidazol-1-YL-thiophene compounds for the treatment of cancer” (priority 2002, published 2008)
pIC50: −log10 of the molar value.

How the values were obtained:
[1] = system: Normal Human foreskin fibroblasts (HFF); test: Methylene Blue Growth Inhibition Assay, HFF; format: cell-based; conditions: 72 h, Cell Line HFF, 3 days, read-out: MeB IC50
Summary of the method: (§1)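 Growth inhibition is measured as methylene blue-stained biomass (OD 620 nm) after 3 days of compound treatment, relative to vehicle controls. Cells grow in high-glucose DMEM with 10% FBS and 0.3% final DMSO; IC50 comes from nonlinear regression.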

[2] = system: breast tumor (MCF7) cell line; test: Methylene Blue Growth Inhibition Assay, MCF7; format: cell-based; conditions: Homo sapiens, 72 h; Cell Line MCF7, 3 days; read-out: MeB IC50
Summary of the method: (§2)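 Methylene blue dye retained by cells after a 3-day, 37° C compound incubation in DMEM/10% FBS (0.3% DMSO) served as the biomass readout at 620 nm. IC50 values were interpolated by nonlinear regression against vehicle wells.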

[3] = system: prostate (PC3) tumor cell line; test: Methylene Blue Growth Inhibition Assay, PC3; format: cell-based; conditions: Homo sapiens, 72 h; Cell Line PC3, 3 days; read-out: MeB IC50
Summary of the method: as §2

[4] = system: colon (RKO) tumor cell line; test: Methylene Blue Growth Inhibition Assay, RKO; format: cell-based; conditions: Homo sapiens, 72 h, 3 days, read-out: MeB IC50
Summary of the method: as §1

PLK1 kinase domain = biological target: T1, PLK1 kinase domain (Homo sapiens, UniProt P53350); test: Assay for Inhibition of PLK1 (SPA enzyme activity); format: biochemical; conditions: 2 μM ATP, read-out: Ave pIC50 PLK Enzyme Inhibition (converted)
T1 construct: made in house; host or cells: baculovirus-infected T. ni insect cells
T1 sequence (P53350 21-346): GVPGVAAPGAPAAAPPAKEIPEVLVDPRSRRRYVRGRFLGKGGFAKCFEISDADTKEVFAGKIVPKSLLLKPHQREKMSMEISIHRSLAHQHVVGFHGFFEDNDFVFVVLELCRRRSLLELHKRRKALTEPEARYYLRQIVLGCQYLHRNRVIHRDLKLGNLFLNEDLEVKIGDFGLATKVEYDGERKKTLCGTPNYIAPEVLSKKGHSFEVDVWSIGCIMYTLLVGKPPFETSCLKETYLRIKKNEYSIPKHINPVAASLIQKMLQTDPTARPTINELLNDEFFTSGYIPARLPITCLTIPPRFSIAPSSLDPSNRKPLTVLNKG

A549 = test: Methylene Blue Growth Inhibition Assay, A549; format: cell-based; conditions: Homo sapiens; Cell Line A549; read-out: MeB IC50
[5] = system: lung (H460) tumor cell line; test: Methylene Blue Growth Inhibition Assay, H460; format: cell-based; conditions: Homo sapiens, NCI-H460, 72 h; Cell Line H460, 3 days; read-out: MeB IC50
Summary of the method: as §1

[6] = system: colon (HCT116) tumor cell line; test: Methylene Blue Growth Inhibition Assay, HCT116; format: cell-based; conditions: Homo sapiens, HCT-116, 72 h; Cell Line HCT116, 3 days; read-out: MeB IC50
Summary of the method: as §2

For `COc1cc2ncn(-c3cc(OS(=O)(=O)c4ccccc4C)c(C(N)=O)s3)c2cc1OC` [Example 154, 2-(Aminocarbonyl)-5-(5,6-dimethoxy-1H-benzimidazol-1-yl)thien-3-yl-2-methylbenzenesulfonate], the pIC50 [1] was < 5.00, the pIC50 [2] was > 6.00 and the pIC50 [3] was < 5.00. The pIC50 [4] was > 6.00, the IC50 (PLK1 kinase domain) was < 0.1 µM and the pIC50 (A549) was > 6.00. For the same compound, the pIC50 [5] was > 6.00 and the pIC50 [6] was 5.00 to 6.00.
